Assays:
NCI-H1299 [1] = assay: Dark toxicity against human NCI-H1299 cells assessed as reduction in metabolic activity at 10 uM incubated for 4 hrs by MTT assay; type: cell-based; set-up: scale not given: the % may be the effect or the level left; conditions: nci-h1299, 4 h
A549 [2] = assay: Dark toxicity against human A549 cells assessed as reduction in metabolic activity at 10 uM incubated for 4 hrs by MTT assay; type: cell-based; set-up: scale not given: the % may be the effect or the level left; conditions: a549, 4 h
[3] = Induction of singlet oxygen generation in THF assessed as singlet oxygen quantum yield by comparative photoluminescence method; type: functional
A549 [4] = assay: Dark toxicity against human A549 cells assessed as reduction in metabolic activity at <1 uM incubated for 4 hrs by MTT assay; type: cell-based; conditions: a549, 4 h
[5] = Phototoxicity against human NCI-H1299 cells assessed as reduction in cell viability preincubated for 24 hrs followed by 7.5 to 10 mW/cm^-2 red light irradiation and measured after 24 hrs by MTT assay; type: functional, cell-based; conditions: NCI-H1299, light or radiation study
NCI-H1299 [6] = assay: Dark toxicity against human NCI-H1299 cells assessed as reduction in metabolic activity at <1 uM incubated for 4 hrs by MTT assay; type: cell-based; conditions: nci-h1299, 4 h
[7] = Phototoxicity against human A549 cells assessed as reduction in cell viability preincubated for 24 hrs followed by 7.5 to 10 mW/cm^-2 red light irradiation and measured after 24 hrs by MTT assay; type: functional, cell-based; conditions: A549, light or radiation study
[8] = Fluorescence property of the compound in toluene assessed as fluorescence quantum yield by photoluminescence quantum yield spectrometer; type: physicochemical
[9] = Fluorescence property of the compound in THF assessed as fluorescence quantum yield by photoluminescence quantum yield spectrometer; type: physicochemical
[10] = Fluorescence property of the compound in DMSO assessed as fluorescence quantum yield by photoluminescence quantum yield spectrometer; type: physicochemical
A549 [11] = assay: Photocytotoxicity in human A549 cells assessed as cell viability at 10 uM measured after 24 hrs by MTT assay relative to control; type: functional; conditions: read-out: Activity
A549 [12] = assay: Dark toxicity against human A549 cells assessed as reduction in metabolic activity at 5 uM incubated for 4 hrs by MTT assay relative to control; type: cell-based; set-up: scale not given: the % may be the effect or the level left; conditions: a549, 4 h

| Activity [8] | Activity [9] | Activity [10] | SMILES | Activity (NCI-H1299 [1]) | Activity (A549 [2]) | Activity [3] | Activity (A549 [4]) | IC50 [5] [nM] | Activity (NCI-H1299 [6]) | IC50 [7] [nM] | viability at 10 µM (A549 [11]) [%] | Activity (A549 [12]) [%] |
| --- | --- | --- | --- | --- | --- | --- | --- | --- | --- | --- | --- | --- |
| – | 0.111 | 0.211 | C/C(=N\NC(=O)c1ccccc1)c1c2nc(c(-c3ccccc3)c3ccc([nH]3)c3ccc([nH]3)c(-c3ccccc3)c3ccc1[nH]3)C=C2 | Non-toxic | Non-toxic | 0.11 | Non-toxic | 164 | Non-toxic | 803 | – | – |
| 0.197 | – | – | CC(C)(C)OC(=O)N/N=C(\c1ccccc1)c1c2nc(c(-c3ccc([N+](=O)[O-])cc3)c3ccc([nH]3)c3ccc([nH]3)c(-c3ccc([N+](=O)[O-])cc3)c3ccc1[nH]3)C=C2 | 51.15% | 48.37% | 0.31 | Non-toxic | 2360 | Non-toxic | 2110 | – | – |
| 0.002 | – | – | C/C(=N\Nc1ccc([N+](=O)[O-])cc1[N+](=O)[O-])c1c2nc(c(-c3ccccc3)c3ccc([nH]3)c3ccc([nH]3)c(-c3ccccc3)c3ccc1[nH]3)C=C2 | – | – | – | Non-toxic | – | Non-toxic | – | – | – |

The next lines start with the molecule.

| SMILES | Activity [8] | Activity [9] | Activity [10] | Activity (NCI-H1299 [1]) | Activity (A549 [2]) | Activity [3] | Activity (A549 [4]) | IC50 [5] [nM] | Activity (NCI-H1299 [6]) | IC50 [7] [nM] | viability at 10 µM (A549 [11]) [%] | Activity (A549 [12]) [%] |
| --- | --- | --- | --- | --- | --- | --- | --- | --- | --- | --- | --- | --- |
| C/C(=N/NC(=O)OC(C)(C)C)c1c2nc(c(-c3ccc([N+](=O)[O-])cc3)c3ccc([nH]3)c3ccc([nH]3)c(-c3ccc([N+](=O)[O-])cc3)c3ccc1[nH]3)C=C2 | 0.195 | – | – | 53.41% | 49.14% | 0.22 | Non-toxic | 310 | Non-toxic | 748 | – | – |
| C/C(=N/NC(=O)OC(C)(C)C)c1c2nc(c(-c3cccc(O)c3)c3ccc([nH]3)c3ccc([nH]3)c(-c3cccc(O)c3)c3ccc1[nH]3)C=C2 | – | 0.133 | 0.283 | – | – | 0.26 | Non-toxic | 67.5 | Non-toxic | 140 | – | – |
| C/C(=N/NC(=O)OC(C)(C)C)c1c2nc(c(-c3ccc(O)cc3)c3ccc([nH]3)c3ccc([nH]3)c(-c3ccc(O)cc3)c3ccc1[nH]3)C=C2 | – | 0.114 | 0.249 | – | – | 0.18 | Non-toxic | 145 | Non-toxic | 413 | – | – |
| CC(C)(C)OC(=O)N/N=C(/c1ccccc1)c1c2nc(c(-c3ccc(O)cc3)c3ccc([nH]3)c3ccc([nH]3)c(-c3ccc(O)cc3)c3ccc1[nH]3)C=C2 | – | 0.118 | 0.234 | – | – | 0.21 | Non-toxic | 56.1 | Non-toxic | 89.3 | – | – |
| CC(C)(C)OC(=O)N/N=C(\c1ccccc1)c1c2nc(c(-c3ccccc3)c3ccc([nH]3)c3ccc([nH]3)c(-c3ccccc3)c3ccc1[nH]3)C=C2 | – | 0.159 | 0.298 | Non-toxic | – | 0.46 | Non-toxic | 538 | Non-toxic | 948 | – | – |
| C1=Cc2nc1c(-c1ccccc1)c1ccc([nH]1)c(-c1ccccc1)c1ccc([nH]1)c1ccc([nH]1)c2-c1ccccc1 | – | 0.12 | 0.22 | – | – | 0.22 | – | – | – | – | 93 | – |
| C/C(=N\NS(=O)(=O)c1ccc(C)cc1)c1c2nc(c(-c3ccc(O)cc3)c3ccc([nH]3)c3ccc([nH]3)c(-c3ccc(O)cc3)c3ccc1[nH]3)C=C2 | – | 0.073 | 0.212 | – | 13.93% | 0.19 | Non-toxic | 277 | Non-toxic | 892 | – | 17.95 |
| Oc1cccc(-c2c3nc(c(-c4cccc(O)c4)c4ccc([nH]4)c(-c4cccc(O)c4)c4nc(c(-c5cccc(O)c5)c5ccc2[nH]5)CC4)C=C3)c1 [TEMOPORFIN] | – | – | – | – | – | – | – | – | – | 84.1 | – | – |

From ChEMBL document CHEMBL6087389, “Hydrazone-Functionalized trans-A2B-Corroles: Effective Synergy in Photodynamic Therapy of Lung Cancer” (J Med Chem, 2024)
